In US8658604B2, “Template-fixed beta-hairpin peptidomimetics with protease inhibitory activity” (Polyphor Ltd, priority 2005, dated 2014):
Where a SMILES comes first, the peptide text is derived from it.

How the values were obtained:
Chymase, from human skin = target: T1, Chymase, from human skin (Homo sapiens, UniProt P23946); assay: Enzymatic assay, chymase
T1 sequence (P23946 22-247): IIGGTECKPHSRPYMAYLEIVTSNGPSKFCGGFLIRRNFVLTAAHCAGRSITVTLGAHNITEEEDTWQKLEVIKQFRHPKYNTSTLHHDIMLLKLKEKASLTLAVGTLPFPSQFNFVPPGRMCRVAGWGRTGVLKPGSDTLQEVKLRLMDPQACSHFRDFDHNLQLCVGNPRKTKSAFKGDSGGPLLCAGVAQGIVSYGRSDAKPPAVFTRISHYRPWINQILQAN

[1] = tested on: Tryptase, from human lung; assay: Enzymatic assay, tryptase; conditions: at 100 μM
[2] = target: Coagulation Factor Xa, from uman plasma (Homo sapiens, UniProt P00742); assay: Enzymatic assay, coagulation factor Xa
Coagulation Factor Xa, from uman plasma, sequence (P00742 235-488 limits assumed): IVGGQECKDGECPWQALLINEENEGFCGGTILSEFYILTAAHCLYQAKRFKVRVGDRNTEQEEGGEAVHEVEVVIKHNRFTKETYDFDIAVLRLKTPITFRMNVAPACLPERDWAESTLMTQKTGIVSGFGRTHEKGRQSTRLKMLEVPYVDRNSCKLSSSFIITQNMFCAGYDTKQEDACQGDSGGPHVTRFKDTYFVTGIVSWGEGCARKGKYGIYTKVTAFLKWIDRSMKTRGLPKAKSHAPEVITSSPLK
Coagulation Factor Xa, from uman plasma, sequence (P00742 41-179 limits assumed): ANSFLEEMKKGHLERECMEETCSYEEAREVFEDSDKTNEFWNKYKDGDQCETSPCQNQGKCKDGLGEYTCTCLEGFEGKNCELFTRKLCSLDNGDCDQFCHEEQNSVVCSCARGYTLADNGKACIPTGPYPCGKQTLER

[3] = tested on: human red blood cells (hRBC); assay: Hemolysis
[4] = target: T2, CathepsinG, from human neutrophils (Homo sapiens, UniProt P08311); assay: Enzymatic assay, cathepsin G; conditions: Cathepsin G IC50
T2 sequence (P08311 21-244): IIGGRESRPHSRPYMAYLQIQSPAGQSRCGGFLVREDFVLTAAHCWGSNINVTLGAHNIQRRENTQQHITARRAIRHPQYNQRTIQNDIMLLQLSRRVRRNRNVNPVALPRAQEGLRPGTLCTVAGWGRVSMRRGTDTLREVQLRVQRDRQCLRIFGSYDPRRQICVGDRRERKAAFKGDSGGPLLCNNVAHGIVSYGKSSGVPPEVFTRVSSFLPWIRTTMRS

[5] = target: Thrombin, from Human Plasma (Homo sapiens, UniProt P00734); assay: Enzymatic assay, thrombin
[6] = target: Urokinase from human urine (Homo sapiens, UniProt P00749); assay: Enzymatic assay, urokinase
[7] = target: Chymotrypsin, from human pancreas (Homo sapiens, UniProt P17538); assay: Enzymatic assay, chymotrypsin
Chymotrypsin, from human pancreas, sequence (P17538 19-263): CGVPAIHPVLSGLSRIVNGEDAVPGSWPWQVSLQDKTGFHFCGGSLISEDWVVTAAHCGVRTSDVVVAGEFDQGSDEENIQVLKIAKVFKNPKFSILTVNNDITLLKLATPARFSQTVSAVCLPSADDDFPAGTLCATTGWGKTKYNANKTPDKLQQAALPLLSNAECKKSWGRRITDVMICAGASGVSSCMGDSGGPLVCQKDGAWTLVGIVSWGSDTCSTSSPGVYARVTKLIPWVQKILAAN

[8] = target: T3, Elastase from human neutrophils (Homo sapiens, UniProt P08246); assay: Enzymatic assay, elastase; conditions: Elastase IC50
T3 sequence (P08246 30-267): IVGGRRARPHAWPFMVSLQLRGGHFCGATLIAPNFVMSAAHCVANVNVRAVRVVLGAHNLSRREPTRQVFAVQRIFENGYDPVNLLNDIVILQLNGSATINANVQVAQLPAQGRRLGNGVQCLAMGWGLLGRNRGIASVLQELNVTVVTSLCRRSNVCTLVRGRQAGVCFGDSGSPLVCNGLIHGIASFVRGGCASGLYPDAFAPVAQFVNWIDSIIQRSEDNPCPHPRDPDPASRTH

[9] = target: Trypsin, from human pancreas (Homo sapiens, UniProt P07477); assay: Enzymatic assay, trypsin; conditions: at 100 μM
HELA cells (Acc57) = assay: Cytotoxicity assay (MTT reduction), HELA cells; type: cell-based; conditions: Hela cells
Description: The cytotoxicity of the peptides to HELA cells (Acc57) and COS-7 cells (CRL-1651) was determined using the MTT reduction assay [see ref. 2 and 3, below]. Briefly the method was as follows: HELA cells and COS-7 cells were seeded at 7.0×10^3 and, respectively, 4.5×10^3 cells per well and grown in 96-well microtiter plates for 24 hours at 37° C. at 5% CO2. At this point, time zero (Tz) was determined by MTT reduction (see below). The supernatant of the remaining wells was discarded, and fresh medium and the peptides in serial dilutions of 12.5, 25 and 50 μM were pipetted into the wells. Each peptide concentration was assayed in triplicate. Incubation of the cells was continued for 48 hours at 37° C. at 5% CO2. Wells were then washed once with phosphate buffered saline (PBS) and subsequently 100 μl MTT reagent (0.5 mg/ml in medium RPMI1640 and, respectively, DMEM) were added to the wells. This was incubated at 37° C. for 2 hours and subsequently the medium was aspirated and 100 μl isopropanol were added to each well. The absorbance at 595 nm of the solubilized product was measured (OD595peptide). For each concentration averages were calculated from triplicates. The percentage of growth was calculated as follows: (OD595peptide-OD595Tz-OD595Empty well)/(OD595Tz-OD595Empty well)×100% and was plotted for each peptide concentration.
The LC 50 values (Lethal Concentration, defined as the concentration that kills 50% of the cells) were determined for each peptide by using the trend line function of EXCEL (Microsoft Office 2000) for the concentrations (50, 25, 12.5 and 0 μM), the corresponding growth percentages and the value −50, (=TREND(C50:C0,%50:%0,−50)).
The GI 50 (Growth Inhibition) concentrations were calculated for each peptide by using a trend line function for the concentrations (50, 25, 12.5 and 0 μg/ml), the corresponding percentages and the value 50, (=TREND (C50:C0,%50:%0,50).

Structure (SMILES)	Chymase at 100 μM % (Chymase, from human skin) [%]	Tryptase at 100 μM % [1] [%]	FXa at 100 μM % [2] [%]	Hemolysis at 100 μM % [3] [%]	IC50 [4] [µM]	Thrombin at 100 μM % [5] [%]	Urokinase at 100 μM % [6] [%]	Chymotrypsin at 100 μM % ([7]; at 100 μM) [%]	IC50 [8] [µM]	Trypsin at 100 μM % [9] [%]	Cytotoxicity LC50/GI50 Hela cells (HELA cells (Acc57)) [µM]	IC50 [7] [µM]
CC[C@H](C)[C@@H]1NC(=O)[C@@H]2CCCN2C(=O)[C@@H]2CCCN2C(=O)[C@H](CC(=O)O)NC(=O)[C@H](CO)NC(=O)[C@H](CCCCN)NC(=O)[C@H]([C@@H](C)O)NC(=O)[C@@H]2CSSC[C@H](NC1=O)C(=O)N[C@@H](Cc1ccc(O)cc1)C(=O)N1CCC[C@@H]1C(=O)N1CCC[C@H]1C(=O)N[C@@H](Cc1ccccc1)C(=O)N2 [Ex. 5] (HELM PEPTIDE1{F.C.T.K.S.D.P.P.I.C.Y.[dP].P}$PEPTIDE1,PEPTIDE1,2:R3-10:R3|PEPTIDE1,PEPTIDE1,1:R1-13:R2$$$V2.0)	0	74	0.2	0	0.056	0.5	5.7	3	> 100	92		
CCCC[C@@H]1NC(=O)[C@@H]2CCCN2C(=O)[C@H]2CCCN2C(=O)[C@H](c2ccccc2)NC(=O)[C@@H]2CSSC[C@H](NC1=O)C(=O)N[C@@H]([C@@H](C)O)C(=O)N[C@@H](C)C(=O)N[C@@H](CO)C(=O)N[C@@H]([C@@H](C)CC)C(=O)N1CCC[C@H]1C(=O)N1CCC[C@H]1C(=O)N[C@@H](CCC(N)=O)C(=O)N2 [Ex. 98] (HELM PEPTIDE1{[Nle].C.T.A.S.I.P.P.Q.C.[Phg].[dP].P}$PEPTIDE1,PEPTIDE1,2:R3-10:R3|PEPTIDE1,PEPTIDE1,1:R1-13:R2$$$V2.0)	0	0	0		> 100	5.2	0		0.021	0	78	38.8
CCCCCCCC[C@@H]1NC(=O)[C@@H]2CCCN2C(=O)[C@H]2CCCN2C(=O)[C@H](Cc2ccc(O)cc2)NC(=O)[C@@H]2CSSC[C@H](NC1=O)C(=O)N[C@@H]([C@@H](C)O)C(=O)N[C@@H](C)C(=O)N[C@@H](CO)C(=O)N[C@@H]([C@@H](C)CC)C(=O)N1CCC[C@H]1C(=O)N1CCC[C@H]1C(=O)N[C@@H](CCC(N)=O)C(=O)N2 [Ex. 102] (HELM PEPTIDE1{[CCCCCCCC[C@H](N[*:1])C(=O)[*:2]].C.T.A.S.I.P.P.Q.C.Y.[dP].P}$PEPTIDE1,PEPTIDE1,2:R3-10:R3|PEPTIDE1,PEPTIDE1,1:R1-13:R2$$$V2.0)	0	0	0		> 100	1.7	0.5		0.013	0	55	4.98
CC[C@H](C)[C@@H]1NC(=O)[C@H](CO)NC(=O)[C@H](C)NC(=O)[C@H]([C@@H](C)O)NC(=O)[C@@H]2CSSC[C@H](NC(=O)[C@H](CCC(N)=O)NC(=O)[C@@H]3CCCN3C(=O)[C@@H]3CCCN3C1=O)C(=O)N[C@@H](Cc1ccc(O)cc1)C(=O)N1CCC[C@@H]1C(=O)N1CCC[C@H]1C(=O)N[C@@H](CCc1ccccc1)C(=O)N2 [Ex. 103] (HELM PEPTIDE1{[O=C([C@H](CCc1ccccc1)N[*:1])[*:2]].C.T.A.S.I.P.P.Q.C.Y.[dP].P}$PEPTIDE1,PEPTIDE1,2:R3-10:R3|PEPTIDE1,PEPTIDE1,1:R1-13:R2$$$V2.0)	0	0.6	3		> 100	10.2	9.6		0.018	6.4	47	4.31
CCCC[C@@H]1NC(=O)[C@@H]2CCCN2C(=O)[C@H]2CCCN2C(=O)[C@H](Cc2ccccc2Cl)NC(=O)[C@@H]2CSSC[C@H](NC1=O)C(=O)N[C@@H]([C@@H](C)O)C(=O)N[C@@H](C)C(=O)N[C@@H](CO)C(=O)N[C@@H]([C@@H](C)CC)C(=O)N1CCC[C@H]1C(=O)N1CCC[C@H]1C(=O)N[C@@H](CCC(N)=O)C(=O)N2 [Ex. 96] (HELM PEPTIDE1{[Nle].C.T.A.S.I.P.P.Q.C.[O=C([C@H](Cc1ccccc1Cl)N[*:1])[*:2]].[dP].P}$PEPTIDE1,PEPTIDE1,2:R3-10:R3|PEPTIDE1,PEPTIDE1,1:R1-13:R2$$$V2.0)	0	0	0		21.2	3.6	6.2		0.015	7.5	52	15.4
CCCC[C@@H]1NC(=O)[C@@H]2CCCN2C(=O)[C@H]2CCCN2C(=O)[C@H](Cc2ccccc2)NC(=O)[C@@H]2CSSC[C@H](NC1=O)C(=O)N[C@@H]([C@@H](C)O)C(=O)N[C@@H](C)C(=O)N[C@@H](CO)C(=O)N[C@@H]([C@@H](C)CC)C(=O)N1CCC[C@H]1C(=O)N1CCC[C@H]1C(=O)N[C@@H](CCC(N)=O)C(=O)N2 [Ex. 90] (HELM PEPTIDE1{[Nle].C.T.A.S.I.P.P.Q.C.F.[dP].P}$PEPTIDE1,PEPTIDE1,2:R3-10:R3|PEPTIDE1,PEPTIDE1,1:R1-13:R2$$$V2.0)	0	5	5.5		67	0	3.5		0.021	5.2	96	33.1
CCCC[C@@H]1NC(=O)[C@@H]2CCCN2C(=O)[C@H]2CCCN2C(=O)[C@H](Cc2ccc(O)cc2)NC(=O)[C@@H]2CSSC[C@H](NC1=O)C(=O)N[C@@H]([C@@H](C)O)C(=O)N[C@@H](C)C(=O)N[C@@H](CO)C(=O)N[C@@H]([C@@H](C)CC)C(=O)N1CCC[C@H]1C(=O)N1CC(NC(=O)c3ccccc3)C[C@H]1C(=O)N[C@@H](CCC(N)=O)C(=O)N2 (single isomer, unassigned) [Ex. 88]	0	0.6	3		> 100	0.2	96		0.018	6.4	73	4.31
CCCC[C@@H]1NC(=O)[C@H](Cc2ccccc2)NC(=O)[C@H]2CCCN2C(=O)[C@H](Cc2ccc(O)cc2)NC(=O)[C@@H]2CSSC[C@H](NC1=O)C(=O)N[C@@H]([C@@H](C)O)C(=O)N[C@@H](C)C(=O)N[C@@H](CO)C(=O)N[C@@H]([C@@H](C)CC)C(=O)N1CCC[C@H]1C(=O)N1CCC[C@H]1C(=O)N[C@@H](CCC(N)=O)C(=O)N2 [Ex. 122] (HELM PEPTIDE1{[Nle].C.T.A.S.I.P.P.Q.C.Y.[dP].F}$PEPTIDE1,PEPTIDE1,2:R3-10:R3|PEPTIDE1,PEPTIDE1,1:R1-13:R2$$$V2.0)	6.4	0.2	19.6		35.1	0	11.1		0.018	19	29	58
